In ChEMBL document CHEMBL1201862, “PubChem BioAssay data set” (2004):
Activity calls are given as the source filed them.

Legend:
cells = type: functional, cell-based
[1] = target: Nuclear receptor subfamily 0 group B member 1 (Homo sapiens, UniProt P51843); type: functional, cell-based;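 also: HEK293T cells transfected with SF-1 and DAX-1 plus StAR promoter luciferase reporter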
Vero = experiment: viability loss in Vero cells – cell-based, plate reader, cherry-pick samples, cytotoxicity control, dose response (AID 687020); type: functional; conditions: Chlorocebus sabaeus
A549 = experiment: viability loss in A549 cells – cell-based, plate reader, cherry-pick samples, cytotoxicity control, dose response (AID 687028); type: functional; conditions: Homo sapiens
Beta-lactamase [2] = target: Beta-lactamase (Salmonella choleraesuis (strain SC-B67), UniProt Q5J463); experiment: Epi-absorbance-based counterscreen for selective VIM-2 inhibitors: dose response biochemical high throughput screening assay to identify inhibitors of TEM-1 serine-beta-lactamase.
Sequence of Beta-lactamase (Salmonella choleraesuis (strain SC-B67), UniProt Q5J463) (Q5J463 whole entry): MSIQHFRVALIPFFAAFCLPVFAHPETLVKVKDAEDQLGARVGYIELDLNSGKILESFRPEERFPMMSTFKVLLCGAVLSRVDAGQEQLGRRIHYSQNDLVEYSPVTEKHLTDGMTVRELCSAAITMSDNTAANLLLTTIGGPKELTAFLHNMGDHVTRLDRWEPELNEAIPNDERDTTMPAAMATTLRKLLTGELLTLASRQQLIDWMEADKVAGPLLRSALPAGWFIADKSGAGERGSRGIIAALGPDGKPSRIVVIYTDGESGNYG

Beta-lactamase [3] = target: T1, Beta-lactamase (Pseudomonas aeruginosa, UniProt Q79MP6); experiment: inhibition of IMP-1 beta-lactamase activity – biochemical, epi-absorbance, selectivity assay for VIM-2 inhibitor project, dose response (AID 1920)
T1 sequence (Q79MP6 whole entry): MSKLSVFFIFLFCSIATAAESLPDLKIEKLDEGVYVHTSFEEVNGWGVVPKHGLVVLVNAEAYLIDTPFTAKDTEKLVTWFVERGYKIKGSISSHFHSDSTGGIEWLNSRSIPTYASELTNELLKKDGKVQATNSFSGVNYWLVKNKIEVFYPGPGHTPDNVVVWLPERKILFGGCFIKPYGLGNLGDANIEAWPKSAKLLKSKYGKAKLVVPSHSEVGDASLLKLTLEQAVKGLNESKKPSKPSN

Beta-lactamase [4] = target: T1, Beta-lactamase; experiment: […] counterscreen for selective VIM-2 inhibitors: dose response biochemical high throughput screening assay to identify inhibitors of IMP-1 metallo-beta-lactamase.
[5] = target: Nuclear receptor subfamily 5 group A member 2 (Homo sapiens, UniProt O00482); type: functional, cell-based;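 also: HEK293T cells transfected with LRH-1 and a StAR promoter luciferase reporter; potency for inhibitors that lower LRH-1 driven reporter light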
Sequence of Nuclear receptor subfamily 5 group A member 2 (O00482 whole entry): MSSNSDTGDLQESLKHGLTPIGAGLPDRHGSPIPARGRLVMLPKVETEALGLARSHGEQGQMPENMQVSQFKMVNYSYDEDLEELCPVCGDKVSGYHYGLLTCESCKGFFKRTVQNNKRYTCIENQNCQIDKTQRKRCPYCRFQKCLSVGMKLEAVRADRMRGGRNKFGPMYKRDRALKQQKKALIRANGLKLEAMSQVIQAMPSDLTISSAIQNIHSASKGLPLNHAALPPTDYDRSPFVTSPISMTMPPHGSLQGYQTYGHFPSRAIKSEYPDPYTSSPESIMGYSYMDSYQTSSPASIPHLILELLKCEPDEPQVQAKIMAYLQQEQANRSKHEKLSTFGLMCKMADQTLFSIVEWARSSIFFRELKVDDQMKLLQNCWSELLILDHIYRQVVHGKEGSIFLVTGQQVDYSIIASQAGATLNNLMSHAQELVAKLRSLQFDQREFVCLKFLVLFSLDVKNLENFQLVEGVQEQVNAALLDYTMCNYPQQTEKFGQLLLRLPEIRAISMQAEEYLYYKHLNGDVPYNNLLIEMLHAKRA

Steroidogenic factor 1 = Steroidogenic factor 1 (Homo sapiens, UniProt Q13285); experiment: Counterscreen for inverse agonists of the liver receptor homolog-1 (LRH-1; NR5A2): Luminescence-based cell-based high throughput dose response assay to identify inverse agonists of the Steroidogenic Factor 1 Nuclear Receptor (SF1; NR5A1).; type: functional
Sequence of Steroidogenic factor 1 (Q13285 whole entry): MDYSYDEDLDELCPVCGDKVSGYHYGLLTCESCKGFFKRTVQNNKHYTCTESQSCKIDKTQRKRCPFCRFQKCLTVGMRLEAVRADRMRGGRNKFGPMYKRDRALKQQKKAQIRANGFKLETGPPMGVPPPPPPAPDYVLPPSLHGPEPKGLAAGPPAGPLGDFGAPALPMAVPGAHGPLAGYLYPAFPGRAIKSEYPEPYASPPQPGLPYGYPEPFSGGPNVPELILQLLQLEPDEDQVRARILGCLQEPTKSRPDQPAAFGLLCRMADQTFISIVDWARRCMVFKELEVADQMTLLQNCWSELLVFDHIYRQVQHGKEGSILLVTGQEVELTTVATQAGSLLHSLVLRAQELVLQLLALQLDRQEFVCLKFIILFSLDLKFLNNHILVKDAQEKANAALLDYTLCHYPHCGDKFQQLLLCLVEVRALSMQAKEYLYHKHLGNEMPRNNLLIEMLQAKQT

[6] = nonselective StAR promoter luciferase inhibitors – cell-based, luminescence, luciferase reporter, counter-screen for LRH-1 inverse agonist project, dose response (AID 651969); type: functional
[7] = target: T2, Probable nicotinate-nucleotide adenylyltransferase (Staphylococcus aureus (strain N315), UniProt P65502); type: functional, Staphylococcus aureus subsp. aureus N315;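 as to IC50 Mean: confirmatory dose-response retesting of NadD inhibitor hits first found in an ultra-high-throughput screen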
T2 sequence (P65502 whole entry): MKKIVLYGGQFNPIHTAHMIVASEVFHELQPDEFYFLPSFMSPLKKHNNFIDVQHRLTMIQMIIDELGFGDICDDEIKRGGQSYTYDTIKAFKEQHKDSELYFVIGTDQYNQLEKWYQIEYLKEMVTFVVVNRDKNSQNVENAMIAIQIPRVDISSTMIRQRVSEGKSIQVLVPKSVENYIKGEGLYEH

[8] = target: T2, Probable nicotinate-nucleotide adenylyltransferase; type: functional, Staphylococcus aureus subsp. aureus N315; conditions: read-out: IC50_Mean
[9] = target: T3, Methionyl-tRNA synthetase, putative (Trypanosoma brucei brucei, UniProt Q38C91); type: functional, Trypanosoma brucei brucei strain 927/4 GUTat10.1
T3 sequence (Q38C91 whole entry): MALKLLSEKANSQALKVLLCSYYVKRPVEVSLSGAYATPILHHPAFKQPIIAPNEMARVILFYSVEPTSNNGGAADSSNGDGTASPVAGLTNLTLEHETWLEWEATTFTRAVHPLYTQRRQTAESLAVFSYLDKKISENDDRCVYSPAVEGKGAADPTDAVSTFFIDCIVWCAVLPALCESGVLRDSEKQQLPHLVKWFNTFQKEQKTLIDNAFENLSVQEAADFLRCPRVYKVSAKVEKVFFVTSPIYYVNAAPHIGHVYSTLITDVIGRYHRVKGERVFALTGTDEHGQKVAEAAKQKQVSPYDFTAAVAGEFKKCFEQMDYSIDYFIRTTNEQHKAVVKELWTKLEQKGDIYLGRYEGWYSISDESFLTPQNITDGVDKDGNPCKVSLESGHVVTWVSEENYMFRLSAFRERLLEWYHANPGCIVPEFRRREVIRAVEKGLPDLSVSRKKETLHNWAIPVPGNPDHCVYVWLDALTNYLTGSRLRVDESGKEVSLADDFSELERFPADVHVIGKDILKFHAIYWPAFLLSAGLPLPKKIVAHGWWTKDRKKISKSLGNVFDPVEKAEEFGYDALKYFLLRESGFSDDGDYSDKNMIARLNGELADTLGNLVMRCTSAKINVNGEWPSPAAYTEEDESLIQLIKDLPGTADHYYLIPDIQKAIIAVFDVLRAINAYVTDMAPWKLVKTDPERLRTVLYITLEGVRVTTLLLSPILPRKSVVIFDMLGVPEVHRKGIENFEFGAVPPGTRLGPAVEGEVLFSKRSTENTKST

[10] = Counterscreen for inhibitors of Trypanosoma brucei methionyl tRNA synthetase (MetRS): Luminescence-based cell-based high throughput dose response assay to identify compounds that are cytotoxic to Jurkat human T lymphocyte cells.; type: functional
[11] = target: T3, Methionyl-tRNA synthetase, putative; type: functional, Trypanosoma brucei brucei strain 927/4 GUTat10.1; remark: listed apart in the source
[12] = blockers of HIV-1 envelope-mediated cell-cell fusion – cherry-pick, dose response (AID 652057); type: functional, cell-based
[13] = blockers of HIV-1 ZM109 envelope-driven cell-cell fusion – HeLa effector, CEM target cells, luciferase, cherry-pick, dose response (AID 652058); type: functional, cell-based;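 also: luciferase signal from HIV-1 Env mediated cell-cell fusion of effector and target cells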
[14] = off-target signal loss in HeLa-CEM21 co-culture – HeLa F-luc CTL cells, cherry-picked, counter-screen for HIV-1 Env fusion inhibitor project, dose response (AID 652040); type: functional, cell-based;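 also: potency for signal decrease marking cytotoxic or nonspecific inhibition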
[15] = HIV-1 AD8 envelope cell-cell fusion blockers – cherry-pick, dose response (AID 652062); type: functional, cell-based;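 also: luciferase signal from cell-cell fusion driven by HIV-1 clade B AD8 Env; potency is for inhibitors of fusion seen as a drop in luminescence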
Hexokinase = target: T4, Hexokinase (Trypanosoma brucei, UniProt Q38C41); experiment: Confirmation assay for inhibitors of Trypanosoma brucei hexokinase 1-Analogue-first series. [Related pubchem assays (depositor defined):AID1430, AID1632, AID2516, AID2560, AID2579, AID2600, AID449725, AID492951]; type: functional
T4 sequence (Q38C41 whole entry): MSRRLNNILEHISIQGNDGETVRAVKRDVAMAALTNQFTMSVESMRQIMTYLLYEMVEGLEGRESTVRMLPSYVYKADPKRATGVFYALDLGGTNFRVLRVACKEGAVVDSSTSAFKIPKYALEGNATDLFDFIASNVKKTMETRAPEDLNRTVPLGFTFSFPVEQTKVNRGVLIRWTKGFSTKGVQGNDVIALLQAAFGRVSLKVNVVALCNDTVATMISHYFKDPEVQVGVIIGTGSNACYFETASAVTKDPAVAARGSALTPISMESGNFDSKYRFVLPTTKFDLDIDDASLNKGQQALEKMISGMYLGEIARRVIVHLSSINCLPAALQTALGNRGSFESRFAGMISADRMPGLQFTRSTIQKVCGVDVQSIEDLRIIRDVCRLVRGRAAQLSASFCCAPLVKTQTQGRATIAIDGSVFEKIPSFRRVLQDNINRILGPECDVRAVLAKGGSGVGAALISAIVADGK

[16] = target: Glucose-6-phosphate 1-dehydrogenase (Homo sapiens, UniProt P11413); experiment: inhibition of Homo sapiens G6PD, dose series – biochemical, fluorescence, selectivity assay for P. falciparum G6PD inhibitor project, dose response (AID 504792); type: functional
Sequence of Glucose-6-phosphate 1-dehydrogenase (P11413 whole entry, the tested form may be a part): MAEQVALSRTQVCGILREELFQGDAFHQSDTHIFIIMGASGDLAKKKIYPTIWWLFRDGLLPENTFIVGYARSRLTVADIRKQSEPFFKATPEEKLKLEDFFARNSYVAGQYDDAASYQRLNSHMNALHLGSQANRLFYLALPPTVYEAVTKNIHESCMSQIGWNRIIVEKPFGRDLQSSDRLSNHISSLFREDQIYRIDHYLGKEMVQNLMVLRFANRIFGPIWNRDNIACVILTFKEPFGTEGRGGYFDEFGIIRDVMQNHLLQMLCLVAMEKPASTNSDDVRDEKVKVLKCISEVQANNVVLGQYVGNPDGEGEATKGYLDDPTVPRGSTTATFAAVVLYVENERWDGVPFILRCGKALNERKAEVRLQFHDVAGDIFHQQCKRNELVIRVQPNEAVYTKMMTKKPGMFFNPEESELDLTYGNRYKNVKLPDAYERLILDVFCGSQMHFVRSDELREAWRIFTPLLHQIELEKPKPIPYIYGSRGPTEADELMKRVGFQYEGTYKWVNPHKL

[17] = Fluorescence-based cell-based high throughput dose response assay for inhibitors of the interaction of nucleotide-binding oligomerization domain containing 2 (NOD2) and the receptor-interacting serine-threonine kinase 2 (RIPK2).; type: functional; conditions: Homo sapiens
Beta Lactamase = Beta Lactamase (Pseudomonas aeruginosa, UniProt Q932Y6); experiment: BLA reporter interference, concentration series – BLA reporter cells, FRET fluorescence, artefact control for NOD2-RIPK2 interaction inhibitor project, dose response (AID 651552); type: functional, cell-based
Sequence of Beta Lactamase (Q932Y6 whole entry): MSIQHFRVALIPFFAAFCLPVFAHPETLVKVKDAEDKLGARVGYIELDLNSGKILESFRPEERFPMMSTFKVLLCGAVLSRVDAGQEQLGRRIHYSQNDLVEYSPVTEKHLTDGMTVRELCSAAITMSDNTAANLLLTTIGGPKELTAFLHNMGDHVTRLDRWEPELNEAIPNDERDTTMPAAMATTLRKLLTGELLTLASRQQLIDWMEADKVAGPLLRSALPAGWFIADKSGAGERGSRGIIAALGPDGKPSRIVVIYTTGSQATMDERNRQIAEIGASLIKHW

[18] = viability loss in HeLa cells – cytotoxicity control for MgcRacGAP inhibitor project, dose response (AID 624300); type: functional
[19] = target: T5, Rac GTPase-activating protein 1 (Homo sapiens, UniProt Q9H0H5); experiment: blockers of MgcRacGAP-driven Rac1 GTP hydrolysis – biochemical, ADP Hunter fluorescence, primary and confirmatory, confirmation (AID 624330); type: functional
T5 sequence (Q9H0H5 whole entry): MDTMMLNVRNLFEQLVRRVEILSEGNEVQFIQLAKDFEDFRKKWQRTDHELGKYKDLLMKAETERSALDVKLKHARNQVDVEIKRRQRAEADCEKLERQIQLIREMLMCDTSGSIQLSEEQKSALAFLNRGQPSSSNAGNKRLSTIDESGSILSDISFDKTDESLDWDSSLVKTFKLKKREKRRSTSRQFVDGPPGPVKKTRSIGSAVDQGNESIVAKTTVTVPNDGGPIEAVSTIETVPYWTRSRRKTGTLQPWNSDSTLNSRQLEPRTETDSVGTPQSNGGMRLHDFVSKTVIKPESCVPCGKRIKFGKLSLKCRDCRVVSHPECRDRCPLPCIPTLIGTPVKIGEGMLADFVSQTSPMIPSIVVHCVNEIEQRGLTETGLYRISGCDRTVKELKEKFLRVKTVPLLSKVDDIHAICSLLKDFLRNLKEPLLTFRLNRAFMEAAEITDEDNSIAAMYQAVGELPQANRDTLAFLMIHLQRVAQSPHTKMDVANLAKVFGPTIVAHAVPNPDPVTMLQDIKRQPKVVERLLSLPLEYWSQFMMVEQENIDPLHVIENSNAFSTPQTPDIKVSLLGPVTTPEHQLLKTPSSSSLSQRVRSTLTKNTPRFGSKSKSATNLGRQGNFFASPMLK

[20] = target: SWI/SNF-related matrix-associated actin-dependent regulator of chromatin subfamily A member 2 (Homo sapiens, UniProt P51531); experiment: Luminescence-based cell-based high throughput dose response assay to identify activators of the function of SWI/SNF related, matrix associated, actin dependent regulator of chromatin, subfamily a, member 2 (SMARCA2, BRM).; type: functional
Sequence of SWI/SNF-related matrix-associated actin-dependent regulator of chromatin subfamily A member 2 (P51531 whole entry): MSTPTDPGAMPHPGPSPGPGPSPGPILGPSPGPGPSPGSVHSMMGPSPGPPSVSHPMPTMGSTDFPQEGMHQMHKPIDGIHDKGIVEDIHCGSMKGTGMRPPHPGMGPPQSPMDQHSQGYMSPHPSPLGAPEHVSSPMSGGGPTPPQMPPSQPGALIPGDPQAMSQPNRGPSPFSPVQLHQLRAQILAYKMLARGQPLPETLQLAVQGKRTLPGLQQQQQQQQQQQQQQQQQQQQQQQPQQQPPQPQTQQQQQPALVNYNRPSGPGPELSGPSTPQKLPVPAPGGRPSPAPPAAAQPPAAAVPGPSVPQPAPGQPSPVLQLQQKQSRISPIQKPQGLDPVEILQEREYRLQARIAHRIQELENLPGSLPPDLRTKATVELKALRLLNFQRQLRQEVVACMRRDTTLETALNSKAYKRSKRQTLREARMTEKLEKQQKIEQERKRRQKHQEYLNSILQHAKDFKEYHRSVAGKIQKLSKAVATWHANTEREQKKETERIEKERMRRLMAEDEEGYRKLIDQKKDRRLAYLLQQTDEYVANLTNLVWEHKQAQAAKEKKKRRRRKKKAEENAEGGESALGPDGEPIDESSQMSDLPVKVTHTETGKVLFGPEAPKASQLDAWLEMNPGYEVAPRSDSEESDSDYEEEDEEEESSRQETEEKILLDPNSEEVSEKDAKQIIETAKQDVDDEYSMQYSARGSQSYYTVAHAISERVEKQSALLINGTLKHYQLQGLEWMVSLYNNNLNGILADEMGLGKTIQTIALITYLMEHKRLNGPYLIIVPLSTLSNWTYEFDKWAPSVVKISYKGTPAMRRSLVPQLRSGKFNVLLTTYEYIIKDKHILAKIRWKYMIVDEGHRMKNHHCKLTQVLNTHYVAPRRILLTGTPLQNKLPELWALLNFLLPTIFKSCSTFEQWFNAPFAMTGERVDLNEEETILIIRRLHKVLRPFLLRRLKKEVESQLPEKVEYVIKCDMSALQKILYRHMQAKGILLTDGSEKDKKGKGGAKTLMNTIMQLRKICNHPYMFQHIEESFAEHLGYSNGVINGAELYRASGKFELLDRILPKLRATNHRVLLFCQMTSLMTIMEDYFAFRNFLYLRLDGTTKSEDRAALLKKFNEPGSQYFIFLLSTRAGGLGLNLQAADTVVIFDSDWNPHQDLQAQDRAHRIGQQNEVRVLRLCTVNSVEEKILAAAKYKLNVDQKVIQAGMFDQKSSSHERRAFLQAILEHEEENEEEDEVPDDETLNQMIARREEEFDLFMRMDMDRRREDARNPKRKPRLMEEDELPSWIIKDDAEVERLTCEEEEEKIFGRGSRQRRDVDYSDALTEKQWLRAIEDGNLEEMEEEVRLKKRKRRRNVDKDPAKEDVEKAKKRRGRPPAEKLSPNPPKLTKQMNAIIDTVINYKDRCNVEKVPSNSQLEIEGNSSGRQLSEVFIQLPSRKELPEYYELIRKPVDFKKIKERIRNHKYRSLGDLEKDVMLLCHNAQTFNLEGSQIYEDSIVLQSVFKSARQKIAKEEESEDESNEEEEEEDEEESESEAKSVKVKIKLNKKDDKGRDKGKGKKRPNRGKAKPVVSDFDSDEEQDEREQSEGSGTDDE

[21] = Counterscreen for activators of the function of SWI/SNF related, matrix associated, actin dependent regulator of chromatin, subfamily a, member 2 (SMARCA2, BRM): Luminescence-based cell-based high throughput dose response assay to identify non-selective compounds using the VP16 reporter assay.; type: functional

Sequence of Nuclear receptor subfamily 0 group B member 1 (P51843 whole entry): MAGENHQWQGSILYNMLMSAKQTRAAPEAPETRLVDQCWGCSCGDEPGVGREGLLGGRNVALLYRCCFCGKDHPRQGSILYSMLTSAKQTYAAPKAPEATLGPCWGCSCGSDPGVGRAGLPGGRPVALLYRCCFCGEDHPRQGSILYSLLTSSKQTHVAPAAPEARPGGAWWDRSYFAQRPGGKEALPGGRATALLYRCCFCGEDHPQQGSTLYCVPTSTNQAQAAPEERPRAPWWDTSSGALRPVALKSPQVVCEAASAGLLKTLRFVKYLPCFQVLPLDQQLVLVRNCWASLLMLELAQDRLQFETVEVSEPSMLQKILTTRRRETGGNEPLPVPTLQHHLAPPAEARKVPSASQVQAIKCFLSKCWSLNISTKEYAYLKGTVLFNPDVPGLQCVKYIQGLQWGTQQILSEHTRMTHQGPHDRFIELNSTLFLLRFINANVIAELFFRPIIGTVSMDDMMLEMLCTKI

O=C(Nc1ccc(Cl)cn1)c1ccc2nccnc2c1
IC50 (cells): > 67.6 µM (inactive) | IC50 [1]: > 67.6 µM (inactive)

CCC(C)[C@H](NC(=O)[C@@H]1Cc2ccccc2CN1)C(=O)NCc1ccc(C)cc1 (stereo not given in full)
AC50 (Vero): 29.5 µM (active) | AC50 (A549): 20.9 µM (active)

COc1cc2c(cc1OC)C(C)N(C(=O)c1nccnc1C(=O)O)CC2 (stereo not given)
IC50 (Beta-lactamase [2]): > 59.6 µM (inactive) | IC50 (Beta-lactamase [3]): > 59.6 µM (inactive) | IC50 (Beta-lactamase [4]): > 59.6 µM (inactive)

CCOC(=O)N=S(N)(=O)c1ccccc1 (stereo not given)
IC50 (Beta-lactamase [2]): > 59.6 µM (inactive) | IC50 (Beta-lactamase [3]): > 59.6 µM (inactive) | IC50 (Beta-lactamase [4]): > 59.6 µM (inactive)

Cc1cccc(NC(=O)COC(=O)Cc2cccs2)c1C
IC50 [5]: 12.8 µM (inactive) | IC50 (Steroidogenic factor 1): 7.35 µM (active) | IC50 [6]: 35.9 µM (inactive)

CCc1cccc2c1NC(=O)C21N2CCCC2C(C(=O)c2ccc3ccccc3c2)C12C(=O)Nc1ccccc12 (stereo not given)
IC50 [7]: 16.2 µM (active) | IC50 [8]: 35.7 µM (active)

CN(C)S(=O)(=O)c1cccc(NC(=O)Cc2ccc(Cl)cc2)c1
IC50 [9]: 72.3 µM (inactive) | IC50 [10]: 83.3 µM (inactive) | IC50 [11]: 32.3 µM (inactive)

COc1cccc(Cl)c1NC(=O)N1CCc2c([nH]c3ccccc23)C1C(F)(F)F (stereo not given)
AC50 [12]: 4.56 µM (active) | AC50 [13]: 15 µM (active) | AC50 [14]: 2.65 µM (active) | AC50 [15]: 36.8 µM (active)

COc1ccc(-n2sc3ccccc3c2=O)cc1
IC50 (Hexokinase): 5.35 µM (active) | IC50 [16]: 9.6 µM (active) | IC50 [17]: 5.79 µM (active) | IC50 (Beta Lactamase): 27 µM (inactive) | CC50 [18]: 79.7 µM (active) | IC50 [19]: 34.5 µM (active) | EC50 [20]: > 91.2 µM (inactive) | EC50 [21]: > 91.2 µM (inactive)
